The test system of the experiment is stat5. In words: Immunoblotting of stat5 expression and phosphorylation in K562 cells. The format is cell-based, Human. The method, then: K562 cells were treated as indicated for 72 h and stat5 expression was assessed by immunoblotting. Pioglitazone (Pio) was used as a positive control. Data is one representative of 3 independent experiments.
K562 cells were treated as indicated for 30 min and stat5 phosphorylation at Y694 or CrkL phosphorylation at Y207 were assessed by immunoblotting. Total stat5 or β-actin expression was assessed to ensure equal loading. Pio was used as a negative control and IMT was used as a positive control. Data is one representative of 3 independent experiments.
K562 cells were cultured in 6 well plates and treated as indicated in figures or descriptions of FIG. 1E, FIG. 1G and FIG. 2D-E. Cells were then homogenized in lysis buffer containing 50 mM Tris-HCl, pH 7.5, 150 mM NaCl, 1% NP40, 5 mM EDTA, 1 mM DTT, protease and phosphatase inhibitor cocktails (Sigma) and incubated on ice for 30 min followed by 5 cycles of freeze-thaw. Samples were then centrifuged at 14000 rpm at 4° C. for 30 min. Supernatants were then quantified by Bichinchonic acid (Sigma)-based protein estimation. Equal amount of proteins were solubilized in Laemmli buffer, and were resolved by 10%-12% SDS PAGE and transferred onto PVDF membranes (Millipore; Billerica, Mass.). […] Immunoreactivity was detected using a chemiluminescent HRP Substrate (Millipore) in a LAS 4010 Chemi-doc Imager (GE Healthcare, Little Chalfont, UK). […]
(In western blotting, separated proteins are transferred to a membrane and probed.)

One molecule from patent publication US10576078B2 (Council of Scientific & Industrial Research, priority 2017, dated 2020) can be followed below.

For `CC(C)/N=c1\cc2n(-c3ccc(Cl)cc3)c3ccccc3nc-2cc1Nc1ccc(Cl)cc1` [CFZ, Clofazimine], the stat5 phosphorylation result (30 min, Y694) is recorded as “without altering”. Besides, the stat5 protein expression result (72 h, FIG. 2D) is “suppressed”.
